Experimental data reported in ChEMBL document CHEMBL3046791, “Design and synthesis of 2-quinolones as antioxidants and antimicrobials: a rational approach” (Med Chem Res, 2010).

What was measured:
Pseudomonas aeruginosa [1] = assay: Antibacterial activity against Pseudomonas aeruginosa at 500 ug/0.1 mL after 24 hr by agar diffusion method; type: functional
Bacillus subtilis [2] = assay: Antibacterial activity against Bacillus subtilis at 500 ug/0.1 mL after 24 hr by agar diffusion method; type: functional
[3] = Partition coefficient, log P of the compound; type: physicochemical; conditions: octanol/water
Escherichia coli [4] = assay: Antibacterial activity against Escherichia coli at 500 ug/0.1 mL after 24 hr by agar diffusion method; type: functional
Bacillus subtilis [5] = assay: Antibacterial activity against Bacillus subtilis at 10 ug/0.1 mL after 24 hr by agar diffusion method; type: functional
Pseudomonas aeruginosa [6] = assay: Antibacterial activity against Pseudomonas aeruginosa at 10 ug/0.1 mL after 24 hr by agar diffusion method; type: functional
Escherichia coli [7] = assay: Antibacterial activity against Escherichia coli at 10 ug/0.1 mL after 24 hr by agar diffusion method; type: functional
Staphylococcus aureus [8] = assay: Antibacterial activity against Staphylococcus aureus at 10 ug/0.1 mL after 24 hr by agar diffusion method; type: functional
Staphylococcus aureus [9] = assay: Antibacterial activity against Staphylococcus aureus at 500 ug/0.1 mL after 24 hr by agar diffusion method; type: functional

Row | logP [3] | Structure (SMILES) | inhibition zone (IZ) (Bacillus subtilis [2]) [mm] | inhibition zone (IZ) (Escherichia coli [4]) [mm] | inhibition zone (IZ) (Staphylococcus aureus [9]) [mm] | also measured
1 | 1.66 | Cc1cc(=O)[nH]c2cc(NC(=O)c3ccccc3)ccc12 | 12 |  |  | inhibition zone (IZ) (Pseudomonas aeruginosa [1]): 11 mm
2 | 1.69 | Cc1cc(=O)[nH]c2cc(NC(=O)/C=C/c3ccccc3)ccc12 | 11 | 12 |  | 
3 | 1.61 | Cc1cc(=O)[nH]c2cc(NC(=O)c3ccc(F)cc3)ccc12 | 12 |  | 11 | 
4 | 1.71 | Cc1ccccc1C(=O)Nc1ccc2c(C)cc(=O)[nH]c2c1 | 12 |  | 10 | 
5 | 1.67 | Cc1ccc(C(=O)Nc2ccc3c(C)cc(=O)[nH]c3c2)cc1 |  | 13 |  | inhibition zone (IZ) (Pseudomonas aeruginosa [1]): 10 mm
6 | 1.69 | Cc1cc(=O)[nH]c2cc(NC(=O)c3cccc(Cl)c3)ccc12 |  |  |  | 
7 | 1.55 | Cc1cc(=O)[nH]c2cc(NC(=O)c3ccccc3Cl)ccc12 | 10.5 |  |  | 

Further lines, the compound ahead of its results:

Row | Structure (SMILES) | logP [3] | inhibition zone (IZ) (Bacillus subtilis [2]) [mm] | inhibition zone (IZ) (Escherichia coli [4]) [mm] | inhibition zone (IZ) (Staphylococcus aureus [9]) [mm] | also measured
8 | Cc1cc(=O)[nH]c2cc(NC(=O)c3c([N+](=O)[O-])cccc3[N+](=O)[O-])ccc12 | 1.82 | 12.5 | 13 |  | inhibition zone (IZ) (Pseudomonas aeruginosa [1]): 10 mm
9 | Cc1cc(=O)[nH]c2cc(NC(=O)c3ccc(Cl)cc3)ccc12 | 1.69 |  | 9 |  | 
10 | Cc1cc(=O)[nH]c2cc(NC(=O)c3ccc([N+](=O)[O-])cc3)ccc12 | 1.63 |  | 11 |  | inhibition zone (IZ) (Pseudomonas aeruginosa [1]): 9 mm
11 | CC1(C)S[C@@H]2[C@H](NC(=O)[C@H](N)c3ccc(O)cc3)C(=O)N2[C@H]1C(=O)O [AMOXICILLIN] |  |  |  |  | inhibition zone (IZ) (Bacillus subtilis [5]): 34 mm; inhibition zone (IZ) (Pseudomonas aeruginosa [6]): 26 mm; inhibition zone (IZ) (Escherichia coli [7]): 23 mm; inhibition zone (IZ) (Staphylococcus aureus [8]): 30 mm
12 | Cc1cc(=O)[nH]c2cc(NC(=O)c3c(Br)cccc3Br)ccc12 | 1.75 | 12 |  | 12 | 
13 | Cc1cc(=O)[nH]c2cc(NC(=O)c3cccc4ccccc34)ccc12 | 1.72 | 13 | 11 |  | 
14 | COc1ccc(C(=O)Nc2ccc3c(C)cc(=O)[nH]c3c2)cc1OC | 1.46 | 13 | 15 | 16 | 
15 | Cc1cc(O)nc2cc(N)ccc12 | 0.793 | 10 | 10 | 11 | inhibition zone (IZ) (Pseudomonas aeruginosa [1]): 11 mm
16 | CC(=O)Nc1ccc2c(C)cc(=O)[nH]c2c1 | 0.995 | 13 |  | 11 | 
17 | Cc1cc(=O)[nH]c2cc(NC(=O)c3ccc(Cl)cc3Cl)ccc12 | 1.83 |  | 9 |  | 
